Measured values taken from ChEMBL document CHEMBL4507258 (2021).

How the values were obtained:
[1] = biological target: Ephrin type-B receptor 4 (Homo sapiens) (UniProt P54760); conditions: Compound concentration 1000.0 nM
[2] = biological target: Serine/threonine-protein kinase 38 (Homo sapiens) (UniProt Q15208); conditions: Compound concentration 1000.0 nM
[3] = system: Mast/stem cell growth factor receptor Kit (Homo sapiens), P10721 [A829P]; conditions: Compound concentration 1000.0 nM
[4] = biological target: T1, Muscarinic acetylcholine receptor M2 (Homo sapiens) (UniProt P08172); conditions: Compound concentration 10.0 uM
T1 sequence (whole entry): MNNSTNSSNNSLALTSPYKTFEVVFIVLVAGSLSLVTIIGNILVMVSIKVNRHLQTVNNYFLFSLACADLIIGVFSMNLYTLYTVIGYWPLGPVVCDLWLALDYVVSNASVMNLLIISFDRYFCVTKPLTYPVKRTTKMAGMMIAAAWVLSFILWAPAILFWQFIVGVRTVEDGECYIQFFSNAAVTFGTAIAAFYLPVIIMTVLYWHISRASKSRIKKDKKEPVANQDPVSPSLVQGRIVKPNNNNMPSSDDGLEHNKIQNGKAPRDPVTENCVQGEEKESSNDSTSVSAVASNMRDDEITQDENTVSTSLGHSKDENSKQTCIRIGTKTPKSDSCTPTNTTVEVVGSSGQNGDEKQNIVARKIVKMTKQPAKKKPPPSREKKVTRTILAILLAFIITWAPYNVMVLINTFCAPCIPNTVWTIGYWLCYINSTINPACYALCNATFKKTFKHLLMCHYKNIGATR

[5] = biological target: Mitogen-activated protein kinase 14 (Homo sapiens) (UniProt Q16539); conditions: Compound concentration 1000.0 nM
[6] = biological target: Casein kinase II subunit alpha' (Homo sapiens) (UniProt P19784); conditions: Compound concentration 1000.0 nM
[7] = biological target: Death-associated protein kinase 1 (Homo sapiens) (UniProt P53355); conditions: Compound concentration 1000.0 nM
[8] = biological target: Serine/threonine-protein kinase WNK1 (Homo sapiens) (UniProt Q9H4A3); conditions: Compound concentration 1000.0 nM
[9] = biological target: G protein-coupled receptor kinase 3 (Homo sapiens) (UniProt P35626); conditions: Compound concentration 1000.0 nM
[10] = biological target: Cyclin-dependent kinase 19 (Homo sapiens) (UniProt Q9BWU1); conditions: Compound concentration 1000.0 nM
[11] = system: Mast/stem cell growth factor receptor Kit (Homo sapiens), P10721 [D816V]; conditions: Compound concentration 1000.0 nM
[12] = biological target: Serine/threonine-protein kinase WNK4 (Homo sapiens) (UniProt Q96J92); conditions: Compound concentration 1000.0 nM
[13] = biological target: Serine/threonine-protein kinase pim-1 (Homo sapiens) (UniProt P11309); conditions: Compound concentration 1000.0 nM
[14] = biological target: Ribosomal protein S6 kinase alpha-1 (Homo sapiens) (UniProt Q15418); conditions: Compound concentration 1000.0 nM
[15] = biological target: Serine/threonine-protein kinase RIO1 (Homo sapiens) (UniProt Q9BRS2); conditions: Compound concentration 1000.0 nM
[16] = biological target: Fibroblast growth factor receptor 1 (Homo sapiens) (UniProt P11362); conditions: Compound concentration 1000.0 nM
[17] = biological target: Glycogen synthase kinase-3 alpha (Homo sapiens) (UniProt P49840); conditions: Compound concentration 1000.0 nM
[18] = biological target: Tyrosine-protein kinase Srms (Homo sapiens) (UniProt Q9H3Y6); conditions: Compound concentration 1000.0 nM
[19] = biological target: High affinity nerve growth factor receptor (Homo sapiens) (UniProt P04629); conditions: Compound concentration 1000.0 nM
[20] = biological target: Rho-associated protein kinase 1 (Homo sapiens) (UniProt Q13464); conditions: Compound concentration 1000.0 nM
[21] = biological target: Mitogen-activated protein kinase 10 (Homo sapiens) (UniProt P53779); conditions: Compound concentration 1000.0 nM
[22] = biological target: Tyrosine-protein kinase Fer (Homo sapiens) (UniProt P16591); conditions: Compound concentration 1000.0 nM
[23] = biological target: cAMP-dependent protein kinase catalytic subunit alpha (Homo sapiens) (UniProt P17612); conditions: Compound concentration 1000.0 nM
[24] = biological target: Serine/threonine-protein kinase NIM1 (Homo sapiens) (UniProt Q8IY84); conditions: Compound concentration 1000.0 nM
[25] = biological target: T2, 5-hydroxytryptamine receptor 3A (Homo sapiens) (UniProt P46098); conditions: Compound concentration 10.0 uM
T2 sequence (whole entry): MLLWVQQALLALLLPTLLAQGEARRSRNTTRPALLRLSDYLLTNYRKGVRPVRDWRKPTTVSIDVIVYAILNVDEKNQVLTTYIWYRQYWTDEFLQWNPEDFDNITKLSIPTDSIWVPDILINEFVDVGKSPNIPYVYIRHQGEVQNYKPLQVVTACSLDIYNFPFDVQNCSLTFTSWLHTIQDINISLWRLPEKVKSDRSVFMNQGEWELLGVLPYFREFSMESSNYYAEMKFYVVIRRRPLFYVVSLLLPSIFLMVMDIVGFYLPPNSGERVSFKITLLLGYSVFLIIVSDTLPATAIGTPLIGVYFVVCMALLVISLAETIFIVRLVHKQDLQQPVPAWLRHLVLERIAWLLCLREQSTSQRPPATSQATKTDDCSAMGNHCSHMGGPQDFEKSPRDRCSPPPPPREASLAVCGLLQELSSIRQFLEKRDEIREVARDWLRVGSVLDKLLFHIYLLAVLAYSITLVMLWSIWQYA

[26] = biological target: Mitogen-activated protein kinase kinase kinase 12 (Homo sapiens) (UniProt Q12852); conditions: Compound concentration 1000.0 nM
[27] = biological target: Serine/threonine-protein kinase Nek6 (Homo sapiens) (UniProt Q9HC98); conditions: Compound concentration 1000.0 nM
[28] = biological target: Mitogen-activated protein kinase 3 (Homo sapiens) (UniProt P27361); conditions: Compound concentration 1000.0 nM
[29] = system: Tyrosine-protein kinase ABL1 (Homo sapiens), P00519 [F317L]; conditions: Compound concentration 1000.0 nM
[30] = biological target: Macrophage colony-stimulating factor 1 receptor (Homo sapiens) (UniProt P07333); conditions: Compound concentration 1000.0 nM
[31] = biological target: BDNF/NT-3 growth factors receptor (Homo sapiens) (UniProt Q16620); conditions: Compound concentration 1000.0 nM
[32] = biological target: Myotonin-protein kinase (Homo sapiens) (UniProt Q09013); conditions: Compound concentration 1000.0 nM
[33] = biological target: Serine/threonine-protein kinase MARK2 (Homo sapiens) (UniProt Q7KZI7); conditions: Compound concentration 1000.0 nM

Glycogen synthase kinase-3 alpha (Homo sapiens), sequence (P49840 2-483 limits assumed): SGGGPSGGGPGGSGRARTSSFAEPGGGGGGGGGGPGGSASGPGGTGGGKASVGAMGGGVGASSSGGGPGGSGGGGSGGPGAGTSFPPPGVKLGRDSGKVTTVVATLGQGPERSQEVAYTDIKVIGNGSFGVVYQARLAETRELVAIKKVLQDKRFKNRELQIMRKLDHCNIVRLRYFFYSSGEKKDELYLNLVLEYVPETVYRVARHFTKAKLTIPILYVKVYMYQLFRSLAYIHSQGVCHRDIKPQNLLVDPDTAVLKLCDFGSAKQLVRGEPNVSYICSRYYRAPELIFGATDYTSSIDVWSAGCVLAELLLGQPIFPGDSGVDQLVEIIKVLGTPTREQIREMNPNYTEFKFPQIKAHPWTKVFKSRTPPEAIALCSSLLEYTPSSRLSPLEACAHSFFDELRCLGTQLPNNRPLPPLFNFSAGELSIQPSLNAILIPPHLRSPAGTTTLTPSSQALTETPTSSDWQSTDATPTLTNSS
Mitogen-activated protein kinase kinase kinase 12 (Homo sapiens), sequence (Q12852 whole entry): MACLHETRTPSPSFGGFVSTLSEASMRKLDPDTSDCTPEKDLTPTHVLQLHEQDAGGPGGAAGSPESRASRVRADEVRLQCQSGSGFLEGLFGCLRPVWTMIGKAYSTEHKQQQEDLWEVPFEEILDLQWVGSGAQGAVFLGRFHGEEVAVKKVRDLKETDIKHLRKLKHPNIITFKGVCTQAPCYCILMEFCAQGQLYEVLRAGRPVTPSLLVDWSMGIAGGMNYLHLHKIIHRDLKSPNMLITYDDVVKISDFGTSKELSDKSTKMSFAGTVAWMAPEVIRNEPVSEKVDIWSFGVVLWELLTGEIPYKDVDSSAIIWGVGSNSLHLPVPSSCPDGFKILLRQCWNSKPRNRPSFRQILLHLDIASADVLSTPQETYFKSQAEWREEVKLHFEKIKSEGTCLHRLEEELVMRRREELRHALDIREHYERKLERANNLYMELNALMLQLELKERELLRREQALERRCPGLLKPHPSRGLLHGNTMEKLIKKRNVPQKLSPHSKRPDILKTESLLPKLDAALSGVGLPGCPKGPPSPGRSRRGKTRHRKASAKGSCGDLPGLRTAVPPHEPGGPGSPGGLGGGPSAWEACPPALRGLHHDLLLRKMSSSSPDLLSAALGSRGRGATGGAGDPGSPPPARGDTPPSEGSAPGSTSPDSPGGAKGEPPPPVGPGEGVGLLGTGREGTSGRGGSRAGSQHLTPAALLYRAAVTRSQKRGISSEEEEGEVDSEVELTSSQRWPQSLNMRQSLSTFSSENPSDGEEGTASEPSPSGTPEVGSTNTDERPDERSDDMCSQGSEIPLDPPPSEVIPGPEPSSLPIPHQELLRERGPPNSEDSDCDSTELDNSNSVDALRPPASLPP
Death-associated protein kinase 1 (Homo sapiens), sequence (P53355 whole entry, looked up): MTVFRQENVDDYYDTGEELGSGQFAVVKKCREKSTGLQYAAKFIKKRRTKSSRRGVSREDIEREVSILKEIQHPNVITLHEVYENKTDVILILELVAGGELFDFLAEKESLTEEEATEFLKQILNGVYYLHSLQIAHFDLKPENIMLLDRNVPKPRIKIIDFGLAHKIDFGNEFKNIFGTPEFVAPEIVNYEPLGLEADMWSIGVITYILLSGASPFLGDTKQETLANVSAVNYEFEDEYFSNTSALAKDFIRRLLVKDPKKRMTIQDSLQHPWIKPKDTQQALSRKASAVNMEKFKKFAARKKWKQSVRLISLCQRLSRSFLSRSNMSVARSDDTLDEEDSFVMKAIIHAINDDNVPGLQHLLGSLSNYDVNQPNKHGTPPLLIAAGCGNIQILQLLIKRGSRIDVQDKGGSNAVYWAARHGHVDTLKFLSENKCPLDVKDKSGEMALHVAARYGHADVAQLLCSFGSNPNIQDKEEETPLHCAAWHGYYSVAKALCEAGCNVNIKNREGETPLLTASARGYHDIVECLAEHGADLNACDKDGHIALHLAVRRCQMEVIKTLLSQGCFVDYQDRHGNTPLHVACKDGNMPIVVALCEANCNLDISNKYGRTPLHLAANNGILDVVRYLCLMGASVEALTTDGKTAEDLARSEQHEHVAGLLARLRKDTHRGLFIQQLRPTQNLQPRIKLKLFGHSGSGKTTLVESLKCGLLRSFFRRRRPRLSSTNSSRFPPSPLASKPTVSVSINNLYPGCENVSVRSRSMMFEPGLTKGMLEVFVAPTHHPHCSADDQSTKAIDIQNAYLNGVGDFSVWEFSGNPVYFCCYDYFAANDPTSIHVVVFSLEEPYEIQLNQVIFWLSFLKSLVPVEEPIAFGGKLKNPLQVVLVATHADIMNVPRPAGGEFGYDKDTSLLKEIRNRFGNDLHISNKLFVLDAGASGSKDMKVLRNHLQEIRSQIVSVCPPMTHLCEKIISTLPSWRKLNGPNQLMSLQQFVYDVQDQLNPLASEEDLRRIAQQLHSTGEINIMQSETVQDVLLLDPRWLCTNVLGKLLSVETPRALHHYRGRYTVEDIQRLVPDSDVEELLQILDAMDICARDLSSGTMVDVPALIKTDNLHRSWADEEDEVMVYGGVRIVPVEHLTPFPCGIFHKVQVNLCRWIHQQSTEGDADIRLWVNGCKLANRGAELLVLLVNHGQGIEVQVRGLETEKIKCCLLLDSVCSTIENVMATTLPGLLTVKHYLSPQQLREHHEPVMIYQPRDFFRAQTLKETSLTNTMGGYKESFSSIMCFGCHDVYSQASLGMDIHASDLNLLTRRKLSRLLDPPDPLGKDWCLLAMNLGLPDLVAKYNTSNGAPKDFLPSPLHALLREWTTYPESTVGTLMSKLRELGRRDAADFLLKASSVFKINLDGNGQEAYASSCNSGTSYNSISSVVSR
Serine/threonine-protein kinase RIO1 (Homo sapiens), sequence (Q9BRS2 whole entry): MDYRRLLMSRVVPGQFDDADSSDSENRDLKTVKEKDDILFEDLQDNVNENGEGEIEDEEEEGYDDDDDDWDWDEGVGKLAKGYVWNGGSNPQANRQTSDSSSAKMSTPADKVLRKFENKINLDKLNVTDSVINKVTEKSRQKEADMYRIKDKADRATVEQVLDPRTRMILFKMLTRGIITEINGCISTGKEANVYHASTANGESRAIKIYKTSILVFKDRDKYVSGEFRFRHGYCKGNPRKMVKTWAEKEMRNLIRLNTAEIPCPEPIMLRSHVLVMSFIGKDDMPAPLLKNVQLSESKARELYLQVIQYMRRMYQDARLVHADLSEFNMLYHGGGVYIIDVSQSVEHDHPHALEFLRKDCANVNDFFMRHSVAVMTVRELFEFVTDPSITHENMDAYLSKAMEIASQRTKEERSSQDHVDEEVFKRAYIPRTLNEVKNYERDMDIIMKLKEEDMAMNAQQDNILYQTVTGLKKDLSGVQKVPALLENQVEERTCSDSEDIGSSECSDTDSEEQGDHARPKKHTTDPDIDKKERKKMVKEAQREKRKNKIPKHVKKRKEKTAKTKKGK
Tyrosine-protein kinase Fer (Homo sapiens), sequence (P16591 whole entry, looked up): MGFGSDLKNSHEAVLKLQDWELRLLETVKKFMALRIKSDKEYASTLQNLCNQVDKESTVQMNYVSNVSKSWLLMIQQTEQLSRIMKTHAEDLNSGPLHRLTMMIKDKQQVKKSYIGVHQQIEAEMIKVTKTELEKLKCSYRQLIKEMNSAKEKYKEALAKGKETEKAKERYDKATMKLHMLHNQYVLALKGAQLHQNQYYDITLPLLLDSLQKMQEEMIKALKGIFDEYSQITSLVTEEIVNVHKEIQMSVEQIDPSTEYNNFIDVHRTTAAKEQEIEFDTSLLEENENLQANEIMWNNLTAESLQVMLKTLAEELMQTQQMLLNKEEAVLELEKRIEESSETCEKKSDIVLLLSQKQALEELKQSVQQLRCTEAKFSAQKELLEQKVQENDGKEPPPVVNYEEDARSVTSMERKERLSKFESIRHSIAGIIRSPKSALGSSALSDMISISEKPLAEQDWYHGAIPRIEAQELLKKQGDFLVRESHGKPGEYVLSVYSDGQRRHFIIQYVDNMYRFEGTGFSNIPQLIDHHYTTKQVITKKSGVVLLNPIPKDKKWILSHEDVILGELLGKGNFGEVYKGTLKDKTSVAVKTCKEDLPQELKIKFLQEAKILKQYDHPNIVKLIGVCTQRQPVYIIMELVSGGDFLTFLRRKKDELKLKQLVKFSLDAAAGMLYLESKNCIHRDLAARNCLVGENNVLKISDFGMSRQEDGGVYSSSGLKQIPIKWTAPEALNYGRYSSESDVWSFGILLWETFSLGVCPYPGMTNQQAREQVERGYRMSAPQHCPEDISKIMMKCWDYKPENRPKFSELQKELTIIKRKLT
Mitogen-activated protein kinase 10 (Homo sapiens), sequence (P53779 whole entry): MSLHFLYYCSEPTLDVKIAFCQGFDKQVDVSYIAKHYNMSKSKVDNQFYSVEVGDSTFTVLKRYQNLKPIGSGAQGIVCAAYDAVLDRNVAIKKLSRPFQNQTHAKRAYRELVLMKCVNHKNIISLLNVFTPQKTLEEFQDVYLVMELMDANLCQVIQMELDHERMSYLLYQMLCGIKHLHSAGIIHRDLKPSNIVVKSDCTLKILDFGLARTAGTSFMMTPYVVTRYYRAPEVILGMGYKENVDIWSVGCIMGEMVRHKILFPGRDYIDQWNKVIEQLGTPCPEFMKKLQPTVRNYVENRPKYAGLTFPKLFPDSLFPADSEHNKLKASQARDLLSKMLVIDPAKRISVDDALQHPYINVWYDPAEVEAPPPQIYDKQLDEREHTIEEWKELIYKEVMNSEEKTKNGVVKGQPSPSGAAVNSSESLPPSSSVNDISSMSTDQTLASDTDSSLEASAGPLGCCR
Serine/threonine-protein kinase Nek6 (Homo sapiens), sequence (Q9HC98 whole entry): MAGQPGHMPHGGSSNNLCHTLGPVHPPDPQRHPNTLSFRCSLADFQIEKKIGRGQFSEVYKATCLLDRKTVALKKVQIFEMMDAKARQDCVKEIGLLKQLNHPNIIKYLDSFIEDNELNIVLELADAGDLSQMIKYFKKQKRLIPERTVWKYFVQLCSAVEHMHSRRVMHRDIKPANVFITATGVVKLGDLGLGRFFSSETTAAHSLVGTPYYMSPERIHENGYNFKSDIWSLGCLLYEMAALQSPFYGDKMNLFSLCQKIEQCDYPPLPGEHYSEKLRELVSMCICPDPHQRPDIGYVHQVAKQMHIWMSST

| Structure (SMILES) | residual activity [1] | residual activity [2] | residual activity [3] | inhibition [4] | residual activity [5] | residual activity [6] | residual activity [7] | residual activity [8] | residual activity [9] | residual activity [10] | residual activity [11] | residual activity [12] | residual activity [13] | residual activity [14] | residual activity [15] | residual activity [16] | residual activity [17] | residual activity [18] | residual activity [19] | residual activity [20] | other results |
| --- | --- | --- | --- | --- | --- | --- | --- | --- | --- | --- | --- | --- | --- | --- | --- | --- | --- | --- | --- | --- | --- |
| CCCCN(CCCC)C(=O)CN1C[C@@H](c2cc(OC)c3c(c2)OCO3)[C@H](C(=O)O)[C@H]1CC(C)(C)CCC [A-545] | 98.5% | 95.2% | 76.5% | 3.71% | 81.3% | 77.1% | 82.8% | 96.8% | 87.6% | 99.6% | 95.8% | 100% | 91.7% | 75.7% | 100% | 100% | 79.9% | 90.6% | 86.7% | 100% | residual activity [21]: 100%; residual activity [22]: 100%; residual activity [23]: 81.9%; residual activity [24]: 100%; inhibition [25]: 2.23%; residual activity [26]: 89.9%; residual activity [27]: 98.1%; residual activity [28]: 100%; residual activity [29]: 93.5%; residual activity [30]: 100%; residual activity [31]: 98.3%; residual activity [32]: 100%; residual activity [33]: 100% |
| CCCCN(CCCC)C(=O)CN1C[C@H](c2cc(OC)c3c(c2)OCO3)[C@@H](C(=O)O)[C@@H]1CC(C)(C)CCC [ABT-546] | 100% | 80.7% | 80.9% | -1.89% | 100% | 98.4% | 100% | 72.9% | 50.8% | 100% | 100% | 97.9% | 100% | 100% | 65.8% | 89.4% | 92.3% | 69.6% | 61.2% | 90.4% | residual activity [21]: 91.1%; residual activity [22]: 100%; residual activity [23]: 100%; residual activity [24]: 100%; inhibition [25]: 14.7%; residual activity [26]: 72.1%; residual activity [27]: 100%; residual activity [28]: 100%; residual activity [29]: 96.7%; residual activity [30]: 43%; residual activity [31]: 62%; residual activity [32]: 100%; residual activity [33]: 100% |
